From PubChem BioAssay (NCI) come the findings set out here.

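96-well plates; 48 h exposure; 5 concentrations. Endpoints by linear interpolation between flanking doses. Not reached: highest tested concentration assigned. GI50: concentration for 50% inhibition of growth. TGI is the concentration that stops growth completely.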

Among the test systems are U251 CNS; SF-539 CNS; RPMI-8226 leukemia; BT-549 breast; A498 renal; SK-MEL-28 melanoma; KM12 colon; SF-268 CNS; A549 NSCLC; SW-620 colon.
Common to all, as to assay: inhibition of tumour cell growth, NCI panel, 48 h

Consider `CCCCCCCCCCCCOC1C(CNC(=O)C2OC3OC(C)(C)OC3C2NC(=O)Nc2ccc(CC(=O)OC)cc2)OC2OC(C)(C)OC21` (stereo not given), for which the GI50 in the test on U251 CNS was 18.3 µM; in the test on SF-539 CNS it was greater than 100 µM; in the test with RPMI-8226 leukemia, greater than 100 µM; in the test with BT-549 breast, greater than 100 µM; in the test with A498 renal it was greater than 100 µM; with SK-MEL-28 melanoma, greater than 100 µM. The GI50 in the test with KM12 colon, in the test on SF-268 CNS, in the test with A549 NSCLC and in the test with SW-620 colon was greater than 100 µM each time. The TGI in the test on U251 CNS, with SF-539 CNS, in the test with RPMI-8226 leukemia, in the test on BT-549 breast, with A498 renal and in the test with SK-MEL-28 melanoma was greater than 100 µM in each case. Moreover, the TGI in the test on KM12 colon, in the test with SF-268 CNS, in the test with A549 NSCLC and with SW-620 colon was greater than 100 µM each time.

For the compound `CC1=CC(=O)C2=C(C)CCC3C(C)C(=O)OC3C12` (stereo not given), the TGI with U251 CNS, in the test on SF-539 CNS, in the test on RPMI-8226 leukemia, in the test with BT-549 breast, with A498 renal and in the test on SK-MEL-28 melanoma was greater than 100 µM each time. For the same compound, the TGI with KM12 colon, with SF-268 CNS, in the test with A549 NSCLC and in the test with SW-620 colon was greater than 100 µM throughout.

Regarding `CC(C)(CN1CCCCC1)C(=O)/C=C/c1ccc(/C=C/C(=O)C(C)(C)CN2CCCCC2)cc1`, the TGI in the test with U251 CNS is 1.18 µM; in the test on SF-539 CNS it was 1.55 µM; in the test on RPMI-8226 leukemia it was 0.663 µM; in the test on BT-549 breast, 3.35 µM; in the test with A498 renal it was 3.08 µM; in the test with SK-MEL-28 melanoma, 2.65 µM. In addition, the TGI with KM12 colon came out at 1.35 µM; in the test with SF-268 CNS it was 1.71 µM; in the test on A549 NSCLC, 2.97 µM; in the test on SW-620 colon, 0.463 µM.

For `COc1ccc(/C=C(/C#N)C(N)=O)c(OC)c1`, the TGI with U251 CNS is greater than 100 µM; with SF-539 CNS, greater than 100 µM; in the test with RPMI-8226 leukemia, greater than 100 µM; with BT-549 breast, greater than 100 µM; in the test with A498 renal it was 25.7 µM; in the test with SK-MEL-28 melanoma it was greater than 100 µM. Moreover, the TGI with KM12 colon, in the test on SF-268 CNS, in the test on A549 NSCLC and with SW-620 colon was greater than 100 µM throughout.

With `COc1cc(Nc2nc3cc(N)cc(N)c3nc2-c2ccccc2)cc(OC)c1OC`, the GI50 with U251 CNS was 24.6 µM; in the test on SF-539 CNS, 14.8 µM; in the test on RPMI-8226 leukemia it was 12.4 µM; with BT-549 breast it was 16.8 µM; in the test with A498 renal, 31.3 µM; in the test on SK-MEL-28 melanoma, 1.45 µM. Besides, the GI50 with KM12 colon is 10.6 µM; in the test on SF-268 CNS it was 18.1 µM; with A549 NSCLC, 29.8 µM; in the test on SW-620 colon, 24.1 µM. For the same compound, the TGI was greater than 100 µM in the test on U251 CNS; 28.9 µM in the test with SF-539 CNS; 32.4 µM with RPMI-8226 leukemia; 33.6 µM with BT-549 breast; greater than 100 µM with A498 renal; 20.7 µM with SK-MEL-28 melanoma. Besides, the TGI in the test on KM12 colon is 29.5 µM; with SF-268 CNS, 60.8 µM; in the test on A549 NSCLC it was greater than 100 µM; with SW-620 colon, greater than 100 µM.

As for `COc1ccc(C2=N[C@@H](Cc3ccccc3)C(=O)Nc3ccsc32)cc1`, the GI50 in the test with U251 CNS was 4.51 µM; with SF-539 CNS it was 2.75 µM; in the test on RPMI-8226 leukemia it was 3.29 µM; in the test with BT-549 breast, 10.6 µM; in the test with A498 renal, 2.32 µM; in the test on SK-MEL-28 melanoma, 9.66 µM. Moreover, the GI50 is 5.62 µM in the test with KM12 colon, 10.4 µM with SF-268 CNS, 4.69 µM in the test with A549 NSCLC and 4.38 µM in the test with SW-620 colon. The TGI stood at 20.5 µM in the test on U251 CNS; 9.84 µM with SF-539 CNS; 18.8 µM with RPMI-8226 leukemia; 28.5 µM in the test with BT-549 breast; 9.04 µM with A498 renal; 24.5 µM in the test with SK-MEL-28 melanoma. Moreover, the TGI in the test with KM12 colon came out at 20.9 µM; in the test with SF-268 CNS, 43.8 µM; with A549 NSCLC, 29.5 µM; in the test on SW-620 colon it was 27.9 µM.

Consider `O=Nc1ccc(O)c(=O)cc1`, for which the GI50 in the test with U251 CNS was 3.08 µM; in the test with SF-539 CNS, 2.67 µM; with RPMI-8226 leukemia, 1.05 µM; with BT-549 breast, 2.86 µM; with A498 renal, 4.89 µM; in the test on SK-MEL-28 melanoma, 2.26 µM. Further, the GI50 is 5.99 µM in the test with KM12 colon, 3.43 µM in the test with SF-268 CNS, 12.3 µM in the test on A549 NSCLC and 0.657 µM in the test with SW-620 colon. Also, the TGI in the test on U251 CNS was 11.6 µM; in the test on SF-539 CNS, 7.48 µM; with RPMI-8226 leukemia it was 3.97 µM; in the test on BT-549 breast, 8.75 µM; in the test with A498 renal, 28.6 µM; in the test with SK-MEL-28 melanoma, 7.02 µM. Further, the TGI in the test with KM12 colon is 16.3 µM; in the test on SF-268 CNS, 10.6 µM; in the test with A549 NSCLC, 68.9 µM; with SW-620 colon it was 2.35 µM.

With `CCC(C)[C@H]1O[C@]2(CC[C@@H]1C)C[C@@H]1C[C@@H](C/C=C(\C)[C@@H](OC3C[C@H](OC)C(O[C@H]4C[C@H](OC)[C@@H](O)[C@H](C)O4)[C@H](C)O3)[C@@H](C)/C=C/C=C3\CO[C@@H]4[C@H](O)C(C)=C[C@@H](C(=O)O1)[C@]34O)O2` (stereo not given in full), the GI50 is 2.21 µM in the test on U251 CNS; 1.91 µM in the test with SF-539 CNS; 2.95 µM in the test with RPMI-8226 leukemia; 2.73 µM with BT-549 breast; 1.79 µM with A498 renal; 2.67 µM in the test with SK-MEL-28 melanoma. Besides, the GI50 with KM12 colon is 3.77 µM; in the test on SF-268 CNS, 4.14 µM; in the test with A549 NSCLC, 2.07 µM; in the test with SW-620 colon, 3.44 µM. Besides, the TGI in the test with U251 CNS amounted to 10.6 µM; with SF-539 CNS, 3.96 µM; in the test with RPMI-8226 leukemia it was 14.9 µM; with BT-549 breast it was 7.3 µM; with A498 renal it was 7.72 µM; in the test on SK-MEL-28 melanoma it was 7.21 µM. Moreover, the TGI in the test with KM12 colon was found to be 14 µM; with SF-268 CNS it was 15.6 µM; in the test with A549 NSCLC it was 11.3 µM; with SW-620 colon, 13.8 µM.

Regarding `CC(C)C1=CC(=O)C(C)(C2C(O)CC3(C)C4CC=C5C(CCC(OC6OC(CO)C(O)C(O)C6OC6OC(C)C(O)C(O)C6O)C5(C)C)C4(C)C(=O)CC23C)O1` (stereo not given), the TGI in the test on U251 CNS, in the test with SF-539 CNS, in the test with RPMI-8226 leukemia, in the test with BT-549 breast, with A498 renal and with SK-MEL-28 melanoma was greater than 100 µM in each case. Further, the TGI in the test on KM12 colon, with SF-268 CNS, with A549 NSCLC and in the test with SW-620 colon was greater than 100 µM each time.
